# Test results published in ChEMBL document CHEMBL4732213, “Discovery of novel ceramide analogs with favorable pharmacokinetic properties and combination with AKT inhibitor against colon cancer” (Eur J Med Chem, 2021).
# Calls of active or inactive are those of the source. The rule behind the calls is not given here.
# How the values were obtained:
# HT-29 [1] = assay: Downregulation of c-Myc protein expression level in human HT29 cells at 20 uM incubated for 24 hrs in presence of 10 uM AKT inhibitor MK2206 by Western blotting analysis; format: functional, cell-based
# HT-29 [2] = assay: Induction of cell cycle arrest in human HT29 cells assessed as accumulation at G0/G1 phase at 20 uM after 24 hrs in presence of 10 uM AKT inhibitor MK2206 by PI staining based flow cytometry analysis; format: functional
# T84 [3] = assay: Additive antiproliferative activity against human T84 cells assessed as combination index at 10 uM after 72 hrs in presence of 5 uM AKT inhibitor MK2206 by Chou-Talalay method; format: functional
# [4] = Cmax in BALB/c mouse at 50 mg/kg, ip; format: ADME, organism-based; set-up: route intraperitoneal, dose 50 mg/kg; conditions: in vivo
# [5] = Antiproliferative activity against human MINO cells measured after 72 hrs by CCK-8 assay; format: functional, cell-based
# LoVo = assay: Antiproliferative activity against human Lovo cells measured after 72 hrs by sulforhodamine B assay; format: functional, cell-based
# HT-29 [6] = assay: Synergistic antiproliferative activity against human HT29 cells assessed as combination index at 20 uM after 72 hrs in presence of 5 uM AKT inhibitor MK2206 by Chou-Talalay method; format: functional
# HT-29 [7] = assay: Down regulation of p-RB expression in human HT29 cells at 20 uM incubated for 24 hrs in presence of 10 uM AKT inhibitor MK2206 by Western blotting analysis; format: functional, cell-based
# HT-29 [8] = assay: Down regulation of CDK2 expression in human HT29 cells at 20 uM incubated for 24 hrs in presence of 10 uM AKT inhibitor MK2206 by Western blotting analysis; format: functional, cell-based
# [9] = Antiproliferative activity against human GM00637 cells measured after 72 hrs by sulforhodamine B assay; format: cell-based; conditions: GM00637, 72 h
# HT-29 [10] = assay: Induction of ROS generation in human HT29 cells at 20 uM after 16 hrs by flow cytometric analysis; format: functional, cell-based
# [11] = Half life in BALB/c mouse at 10 mg/kg, iv; format: ADME, organism-based; conditions: in vivo
# [12] = AUC(0 to infinity) in BALB/c mouse at 50 mg/kg, ip; format: ADME, organism-based; set-up: time infinity, route intraperitoneal, dose 50 mg/kg; conditions: in vivo
# HT-29 [13] = assay: Down regulation of p-RB expression in human HT29 cells at 20 uM incubated for 24 hrs by Western blotting analysis; format: functional, cell-based
# [14] = Toxicity in BALB/c nude mouse xenografted with human HT-29 cells assessed as effect on body weight at 100 mg/kg/day, ip measured every 3 day in presence of 50 mg/kg AKT inhibitor MK2206 by electronic caliper method; format: organism-based; conditions: in vivo, 72 h
# HT-29 [15] = assay: Synergistic antiproliferative activity against human HT29 cells assessed as combination index at 30 uM after 72 hrs in presence of 7.5 uM AKT inhibitor MK2206 by Chou-Talalay method; format: functional
# HT-29 [16] = assay: Upregulation of p21 protein expression in human HT29 cells at 20 uM incubated for 24 hrs by Western blotting analysis; format: functional, cell-based
# Caco-2 = assay: Antiproliferative activity against human Caco2 cells measured after 72 hrs by sulforhodamine B assay; format: functional, cell-based; conditions: Caco-2, 72 h
# HT-29 [17] = assay: Down regulation of cyclin A expression in human HT29 cells at 20 uM incubated for 24 hrs in presence of 10 uM AKT inhibitor MK2206 by Western blotting analysis; format: functional, cell-based
# HT-29 [18] = assay: Additive antiproliferative activity against human HT29 cells assessed as combination index at 10 uM after 72 hrs in presence of 2.5 uM AKT inhibitor MK2206 by Chou-Talalay method; format: functional
# SW480 [19] = assay: Additive antiproliferative activity against human SW480 cells assessed as combination index at 10 uM after 72 hrs in presence of 5 uM AKT inhibitor MK2206 by Chou-Talalay method; format: functional
# HT-29 [20] = assay: Induction of ROS generation in human HT29 cells at 20 uM after 16 hrs in presence of 10 uM AKT inhibitor MK2206 by flow cytometric analysis; format: functional, cell-based
# HT-29 [21] = assay: Induction of apoptosis in human HT29 cells at 15 uM after 48 hrs in presence of 7.5 uM AKT inhibitor MK2206 by Annexin-V-FITC/PI staining based flow cytometric analysis; format: functional
# [22] = AUC(0 to infinity) in BALB/c mouse at 10 mg/kg, iv; format: ADME, organism-based; set-up: route intravenous, time infinity, dose 10 mg/kg; conditions: in vivo
# [23] = AUC(0 to t) in BALB/c mouse at 50 mg/kg, ip; format: ADME, organism-based; set-up: dose 50 mg/kg; conditions: in vivo
# HT-29 [24] = assay: Induction of apoptosis in human HT29 cells assessed as inhibition of AKT phosphorylation at 20 uM after 48 hrs by Western blotting analysis; format: functional, cell-based
# HT-29 [25] = assay: Antitumor activity against human HT-29 cells xenografted in BALB/c nude mouse assessed as tumor growth inhibition at 100 mg/kg/day, ip measured every 3 days by electronic caliper method; format: functional; conditions: HT-29, ip, 72 h, time 3 day, read-out: TGI
# GES1 = assay: Antiproliferative activity against human GES1 cells measured after 72 hrs by sulforhodamine B assay; format: cell-based; conditions: GES1, 72 h
# T84 [26] = assay: Additive antiproliferative activity against human T84 cells assessed as combination index at 5 uM after 72 hrs in presence of 2.5 uM AKT inhibitor MK2206 by Chou-Talalay method; format: functional
# HT-29 [27] = assay: Down regulation of CDK4 expression in human HT29 cells at 20 uM incubated for 24 hrs in presence of 10 uM AKT inhibitor MK2206 by Western blotting analysis; format: functional, cell-based
# SW480 [28] = assay: Antiproliferative activity against human SW480 cells measured after 72 hrs by sulforhodamine B assay; format: functional, cell-based; conditions: SW480, 72 h
# HT-29 [29] = assay: Downregulation of c-Myc protein expression level in human HT29 cells at 20 uM incubated for 24 hrs by Western blotting analysis; format: functional, cell-based
# HT-29 [30] = assay: Induction of apoptosis in human HT29 cells assessed as increase in PARP cleavage at 20 uM after 48 hrs in presence of 10 uM AKT inhibitor MK2206 by Western blot analysis; format: functional, cell-based
# T84 [31] = assay: Synergistic antiproliferative activity against human T84 cells assessed as combination index at 20 uM after 72 hrs in presence of 10 uM AKT inhibitor MK2206 by Chou-Talalay method; format: functional
# HT-29 [32] = assay: Antiproliferative activity against human HT-29 cells measured after 72 hrs by sulforhodamine B assay; format: functional, cell-based; conditions: HT-29, 72 h
# T84 [33] = assay: Antiproliferative activity against human T84 cells measured after 72 hrs by sulforhodamine B assay; format: functional, cell-based; conditions: T84, 72 h
# SW480 [34] = assay: Additive antiproliferative activity against human SW480 cells assessed as combination index at 40 uM after 72 hrs in presence of 20 uM AKT inhibitor MK2206 by Chou-Talalay method; format: functional
# HT-29 [35] = assay: Down regulation of CDK6 expression in human HT29 cells at 20 uM incubated for 24 hrs in presence of 10 uM AKT inhibitor MK2206 by Western blotting analysis; format: functional, cell-based
# HT-29 [36] = assay: Antitumor activity against human HT-29 cells xenografted in BALB/c nude mouse assessed as reduction in tumor weight at 100 mg/kg/day, ip measured every 3 days in presence of 50 mg/kg AKT inhibitor MK2206 by electronic caliper method; format: functional, organism-based; conditions: time 3.0 day
smiles,measurement,setting,value
CCCCCCCOc1ccc(CCC(CO)(CO)NC(C)=O)c2ccccc12,Activity,HT-29 [1],Active
same,Activity,HT-29 [2],Active
same,CI,T84 [3],1.01
same,Cmax,[4],6.03 µg/mL
same,IC50,[5],13.3 µM
same,IC50,LoVo,26.4 µM
same,CI,HT-29 [6],0.77
same,Activity,HT-29 [7],Active
same,Activity,HT-29 [8],Active
same,IC50,[9],47.9 µM
same,Activity,HT-29 [10],inactive
same,half-life,[11],3.12 h
same,AUC(0-inf),[12],15.7 µg·h/mL
same,Activity,HT-29 [13],inactive
same,Activity,[14],Non-Toxic
same,CI,HT-29 [15],0.53
same,Activity,HT-29 [16],inactive
same,IC50,Caco-2,28 µM
same,Activity,HT-29 [17],Active
same,CI,HT-29 [18],1.05
same,CI,SW480 [19],0.9
same,Activity,HT-29 [20],Active
same,Activity,HT-29 [21],40%
same,AUC(0-inf),[22],3.06 µg·h/mL
same,AUC(0-t),[23],15.6 µg·h/mL
same,Activity,HT-29 [24],Active
same,inhibition in vivo at 100 mg/kg/day,HT-29 [25],25.4%
same,IC50,GES1,41.8 µM
same,CI,T84 [26],1.1
same,Activity,HT-29 [27],Active
same,IC50,SW480 [28],22.7 µM
same,Activity,HT-29 [29],inactive
same,Activity,HT-29 [30],Active
same,CI,T84 [31],0.65
same,IC50,HT-29 [32],17.6 µM
same,IC50,T84 [33],14.9 µM
same,CI,SW480 [34],0.97
same,Activity,HT-29 [35],Active
same,Activity,HT-29 [36],Active
